Reference: patent publication US9475779B2, “Substituted bicyclic dihydropyrimidinones and their use as inhibitors of neutrophil elastase activity” (priority 2014, dated 2016)
Values after ≈ are worked out from the molar mass of the structure shown.

How the values were obtained:
cytochrome P450 2C9 = cytochrome P450 2C9 (Homo sapiens (Human), UniProt P11712); assay: biochemical
cytochrome P450 2C19 = cytochrome P450 2C19 (Homo sapiens (Human), UniProt P33261); assay: biochemical
[1] = Metabolic stability with human liver microsomes; type: in vitro ADME; conditions: human, pooled human liver microsomes, pH 7.6, pooled human liver microsomes, 1 μM test compound, 37° C.; read-out: t1/2 INVITRO
hERG potassium channel = hERG potassium channel (Homo sapiens (Human), UniProt Q12809); assay: in vitro
neutrophil elastase [2] = target: T1, neutrophil elastase (Homo sapiens (Human), UniProt P08246); assay: biochemical; type: biochemical; conditions: read-out: IC50
T1 sequence (P08246 whole entry, looked up): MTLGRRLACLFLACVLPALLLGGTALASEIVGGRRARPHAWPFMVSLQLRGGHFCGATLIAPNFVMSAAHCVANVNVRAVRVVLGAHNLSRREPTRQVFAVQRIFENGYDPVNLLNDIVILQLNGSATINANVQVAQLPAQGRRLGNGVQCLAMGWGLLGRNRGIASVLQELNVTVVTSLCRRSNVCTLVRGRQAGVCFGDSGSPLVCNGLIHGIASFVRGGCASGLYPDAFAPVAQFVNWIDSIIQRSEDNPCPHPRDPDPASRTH
Description: Human Neutrophil Elastase Assay
All other materials were of the highest grade commercially available.
The following buffers were used: Compound buffer: 100 mM Tris, 500 mM NaCl, adjusted to pH 7.5; Assay buffer: 100 mM Tris, 500 mM NaCl, adjusted to pH 7.5, containing 0.01% BSA.
Assay conditions: Test compounds were prediluted in DMSO and subsequently in compound buffer (5% DMSO final). […] After inactivation of the enzyme, fluorescence intensities were measured at 380 nm excitation and 460 nm emission wavelengths.
Each plate contains wells with a high value control (DMSO+enzyme+substrate) and wells with a low value control (DMSO+inactivated enzyme+substrate). IC50 values were estimated using a sigmoidal concentration response curve with variable slope. Means of low values were taken as 0%, means of high values as 100%.

cytochrome P450 2C8 = cytochrome P450 2C8 (Homo sapiens (Human), UniProt P10632); assay: biochemical
Chain of cytochrome P450 2C8 (P10632 whole entry, looked up): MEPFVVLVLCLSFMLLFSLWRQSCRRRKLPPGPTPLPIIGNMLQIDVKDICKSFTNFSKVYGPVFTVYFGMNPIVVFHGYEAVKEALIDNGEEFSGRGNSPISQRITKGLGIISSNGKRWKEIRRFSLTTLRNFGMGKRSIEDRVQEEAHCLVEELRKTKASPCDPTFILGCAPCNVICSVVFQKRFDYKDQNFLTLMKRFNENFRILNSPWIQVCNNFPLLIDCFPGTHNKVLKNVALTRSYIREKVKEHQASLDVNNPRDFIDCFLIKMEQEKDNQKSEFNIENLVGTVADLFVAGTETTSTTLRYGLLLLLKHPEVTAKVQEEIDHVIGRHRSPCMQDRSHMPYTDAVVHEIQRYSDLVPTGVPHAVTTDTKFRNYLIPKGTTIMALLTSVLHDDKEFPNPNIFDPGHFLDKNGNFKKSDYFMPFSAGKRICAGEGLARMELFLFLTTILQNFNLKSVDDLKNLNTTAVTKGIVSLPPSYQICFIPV

physchem = type: physicochemical; conditions: McIlvaine buffer pH 6.8 containing 2.5% DMSO, pH 6.8, aqueous buffer, kinetic from dmso stock, McIlvaine buffer pH 6.8, 2.5% DMSO, 24 h
neutrophil elastase [3] = target: T1, neutrophil elastase; assay: biochemical
Caco-2 cells = assay: in vitro; type: in vitro ADME; conditions: pH 7.2
human hepatocytes = assay: Metabolic stability with human hepatocytes; type: in vitro ADME; conditions: well stirred model
Description: Assay for the Determination of Metabolic Stability with Human Hepatocytes
The metabolic degradation of the test compound is assayed in a human hepatocyte suspension. Human hepatocytes (typically cryopreserved) are incubated in an appropriate buffer system (e.g. Dulbecco's modified eagle medium plus […]/500 mL, 2.5 mg insulin/500 mL and 3.75 mg/500 mL hydrocortison) containing 5% species serum. Following a (typically) 30 min preincubation in an incubator (37° C., 10% CO2), 5 μl of test compound solution (80 μM; from 2 mM stock solution in DMSO diluted 1:25 with medium) are added into 395 μl hepatocyte suspension (cell density in the range 0.25-5*10^6 cells/mL, typically 1*10^6 cells/mL; final concentration of test compound 1 μM, final DMSO concentration 0.05%). The cells are incubated for six hours (incubator, orbital shaker) and samples (25 μl) are taken at 0, 0.5, 1, 2, 4 and 6 hours. Samples are transferred into acetonitrile and pelleted by centrifugation (5 min). […] The decline of parent compound is analyzed by LC-MS/MS.
The intrinsic clearance CL_[…] is calculated as follows: CL_[…]=Dose/AUC=(C0/CD)/(AUD+clast/k)*1′000/60 (C0: initial concentration in the incubation […], CD: cell density of vital cells [10^6 cells/mL], AUD: area under the data [μM*h], clast: concentration of last data point [μM], k: slope of the regression line for parent decline [h^−1]) […]

Chain of cytochrome P450 2C9 (P11712 whole entry, looked up): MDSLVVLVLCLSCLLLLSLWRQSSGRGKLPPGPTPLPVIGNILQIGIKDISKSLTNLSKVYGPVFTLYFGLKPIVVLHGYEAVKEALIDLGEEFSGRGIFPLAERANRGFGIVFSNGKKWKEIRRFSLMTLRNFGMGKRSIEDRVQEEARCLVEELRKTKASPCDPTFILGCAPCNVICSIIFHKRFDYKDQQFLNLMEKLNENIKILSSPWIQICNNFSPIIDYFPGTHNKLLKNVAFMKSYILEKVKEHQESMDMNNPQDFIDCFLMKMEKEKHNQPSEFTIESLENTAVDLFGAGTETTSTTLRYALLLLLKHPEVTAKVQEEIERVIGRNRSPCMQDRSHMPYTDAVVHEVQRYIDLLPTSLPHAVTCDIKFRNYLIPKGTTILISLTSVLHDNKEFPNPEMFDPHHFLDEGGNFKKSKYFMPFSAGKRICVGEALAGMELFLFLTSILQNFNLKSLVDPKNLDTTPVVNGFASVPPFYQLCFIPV
Chain of cytochrome P450 2C19 (P33261 whole entry, looked up): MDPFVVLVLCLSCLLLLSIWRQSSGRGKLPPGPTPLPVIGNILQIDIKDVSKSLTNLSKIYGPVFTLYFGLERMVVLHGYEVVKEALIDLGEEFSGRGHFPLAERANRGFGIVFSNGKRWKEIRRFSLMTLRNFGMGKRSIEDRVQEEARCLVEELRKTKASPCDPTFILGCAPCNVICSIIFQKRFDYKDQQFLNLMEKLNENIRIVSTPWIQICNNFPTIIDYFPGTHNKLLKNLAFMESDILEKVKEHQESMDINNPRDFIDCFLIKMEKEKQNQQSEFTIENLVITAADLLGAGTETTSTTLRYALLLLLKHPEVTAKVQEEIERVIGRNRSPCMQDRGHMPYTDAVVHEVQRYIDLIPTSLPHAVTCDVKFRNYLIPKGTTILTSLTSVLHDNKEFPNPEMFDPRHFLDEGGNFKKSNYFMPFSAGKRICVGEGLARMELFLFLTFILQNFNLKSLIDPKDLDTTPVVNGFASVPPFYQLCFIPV

With `CN1C(=O)N(c2cccc(C(F)(F)F)c2)C2=C(C(=O)CC2)[C@H]1c1ccc(C#N)cc1[S+](C)[O-]` (single isomer, unassigned) [Example C.2A, 3-Methanesulfinyl-4-[3-methyl-2,5-dioxo-1-(3-trifluoromethyl-phenyl)-2,3,4,5,6,7-hexahydro-1H-cyclopentapyrimidin-4-yl]-benzonitrile] the IC50 (cytochrome P450 2C9) was over 50 µM, the IC50 (cytochrome P450 2C19) was over 50 µM and the half-life at 1 μM [1] was over 2.17 h. The inhibition at 10 µM (hERG potassium channel) was 7%, the IC50 (neutrophil elastase [2]) was under 0.001 µM and the IC50 (cytochrome P450 2C8) was over 50 µM. For the same molecule, the solubility at 24 h (physchem) was 0.058 mg/mL (≈ 122 µM), the EC50 (neutrophil elastase [3]) was 0.002 µM and the PEAB (Caco-2 cells) was 130 nm/s. The PEBA (Caco-2 cells) was 730 nm/s and the “predicted hepatic in vivo blood clearance” value (human hepatocytes) was 3 % human hepatic blood flow.
